Experimental data reported in patent publication US20250353873A1, “COMPOUNDS AND METHODS FOR MODULATING APOE EXPRESSION” (Ionis Pharmaceuticals, Inc., priority 2024, published 2025).
Strand notation (5' to 3'): a small letter for the sugar, then the base; units joined by * are phosphorothioate-linked, units joined directly phosphodiester-linked; [ ] holds rarer units or linkages, { } end groups; capitals alone tell only the bases. [ms] = mesyl phosphoramidate linkage; e = 2'-O-(2-methoxyethyl) (MOE); k = constrained ethyl (cEt); [5mC] = 5-methylcytosine; d = 2'-deoxy (DNA)

Columns and labels:
[1] = test system: human APOE RNA; experiment: Activity in APOE C57BL/6NTac-Apoeem7250 knock-in mice, single ICV bolus, 8 weeks (Example 11); assay type: in vivo; details: for APOE RNA (% control) Cortex / APOE RNA (% control) Spinal Cord: single ICV bolus 300 μg, 8 weeks post treatment, normalized to mouse Ppia
Description: (§1) Modified oligonucleotides described above were tested in the APOE C57BL/6NTac-Apoeem7250 knock-in mouse model described above.
Each mouse received a single ICV bolus of 300 μg of modified oligonucleotide. A group of 3-4 mice received a single ICV bolus with PBS as a negative control.
(§2) Eight weeks post treatment, mice were sacrificed and RNA was extracted from cortical brain tissue and spinal cord for quantitative real-time RT-PCR analysis of RNA expression of APOE using human primer probe set RTS3073 (described herein above). APOE RNA levels were normalized to mouse Ppia. Mouse Ppia was amplified using primer probe set m_cyclo24 (described herein above). Results are presented as percent human APOE RNA relative to the amount of human APOE RNA in PBS treated animals, (% control). Each experiment is identified in separate tables below.

[2] = test system: human APOE RNA; experiment: Activity in APOE C57BL/6NTac-Apoeem7250 knock-in mice, single ICV bolus, 16 weeks (Example 12); assay type: in vivo; details: single ICV bolus 300 μg, 16 weeks post treatment, normalized to mouse Ppia
Description: as §1
APOE C57BL/6NTac-Apoeem7250 knock-in mice were divided into groups of 3-4 mice each. Each mouse received a single intracerebroventricular (ICV) bolus of 300 μg of modified oligonucleotide. A group of 4 mice received a single ICV bolus with PBS as a negative control.
as §2, with “Sixteen” for “Eight”, “using” for “using human”

| Substance | APOE RNA (% control) Cortex [1] [% control] | APOE RNA (% control) Spinal Cord [1] [% control] | APOE RNA (% control) Cortex ([2]; cortex) [% control] | APOE RNA (% control) Spinal Cord ([2]; spinal cord) [% control] | reduction of human APOE RNA in the cortex ([1]; APOE knock-in mouse model, 8 weeks post administration, assay of Example 11) [%] |
| --- | --- | --- | --- | --- | --- |
| 1693043: 5-10-5 MOE gapmer CTTGGTGAATCTTTATTAAA, linkages sssoszzzzssssssosss (antisense e[5mC]*eT*eT*eGeG*dT[ms]dG[ms]dA[ms]dA[ms]dT*d[5mC]*dT*dT*dT*dA*eTeT*eA*eA*eA) [compound 1693043] | 89 | 83 | 80 | 73 |  |
| 1652910: 5-10-5 MOE gapmer GGTGAATCTTTATTAAACTA, linkages sooosszzsssssssooss (antisense eG*eGeTeGeA*dA*dT[ms]d[5mC][ms]dT*dT*dT*dA*dT*dT*dA*eAeAe[5mC]*eT*eA) [compound 1652910] | 82 | 39 |  |  |  |
| 1809741: mixed MOE/cEt gapmer CTTGGTGAATCTTTATTAAAC, sugar eeeeekddddddddddeeeee, linkages ssoooszzsssssszsooss (e[5mC]*eT*eTeGeGkT*dG[ms]dA[ms]dA*dT*d[5mC]*dT*dT*dT*dA[ms]dT*eTeAeA*eA*e[5mC]) [compound 1809741] | 33 | 28 |  |  |  |
| 1809818 (eT*eTeGkG*dT*dG[ms]dA[ms]dA[ms]dT*d[5mC]*dT*dT*dT*dA[ms]kT*kTeAeA*eA*e[5mC]; antisense) [Compound 1809818] | 42 | 36 |  |  |  |
| 1810065: mixed MOE/cEt gapmer CTTGGTGAATCTTTATTAAAC, sugar eeeeekddddddddddeeeee, linkages ssoosszzzssssszsooss (listed as DNA, chemistry not fully specified) [compound 1810065] | 29 | 21 |  |  |  |
| 1652917: 6-10-4 MOE gapmer GGTGAATCTTTATTAAACTA, linkages sooooossssszsszzoss (antisense eG*eGeTeGeAeAdT*d[5mC]*dT*dT*dT*dA[ms]dT*dT*dA[ms]dA[ms]eAe[5mC]*eT*eA) [compound 1652917] | 107 | 41 |  |  |  |
| Compound No. 1517578: comparator of WO 2022/066956; CTTGGTGAATCTTTATTAAA, sugar eeeeeddddddddddeeeee, linkages sooosssssssssssooss (MOE gapmer, mixed PS/PO linkages, chemistry not fully specified) [reference compound] | 66 | 47 |  |  | 34 |
| 1652919: 6-10-4 MOE gapmer GGTGAATCTTTATTAAACTA, linkages soooooszzzssssssoss (antisense eG*eGeTeGeAeAdT*d[5mC][ms]dT[ms]dT[ms]dT*dA*dT*dT*dA*dA*eAe[5mC]*eT*eA) [compound 1652919] | 90 | 54 |  |  |  |
| 1809690: mixed MOE/cEt gapmer CTTGGTGAATCTTTATTAA, sugar eeeekddddddddddkkek, linkages sosssszzzssssszoss (e[5mC]*eTeT*eG*kG*dT*dG[ms]dA[ms]dA[ms]dT*d[5mC]*dT*dT*dT*dA[ms]kTkT*eA*kA) [compound 1809690] | 26 | 24 |  |  |  |
| 1652916: 5-10-5 MOE gapmer GGTGAATCTTTATTAAACTA, linkages soooszzzsssssszooss (antisense eG*eGeTeGeA*dA[ms]dT[ms]d[5mC][ms]dT*dT*dT*dA*dT*dT*dA[ms]eAeAe[5mC]*eT*eA) [compound 1652916] | 128 | 49 |  |  |  |
| 1652912: 5-10-5 MOE gapmer GGTGAATCTTTATTAAACTA, linkages sooossssssszsszooss (antisense eG*eGeTeGeA*dA*dT*d[5mC]*dT*dT*dT*dA[ms]dT*dT*dA[ms]eAeAe[5mC]*eT*eA) [compound 1652912] | 95 | 41 |  |  |  |
| 1809745: mixed MOE/cEt gapmer CTTGGTGAATCTTTATTAAAC, sugar eeeeekddddddddddeeeee, linkages zsoooszzsssssszsoosz (e[5mC][ms]eT*eTeGeGkT*dG[ms]dA[ms]dA*dT*d[5mC]*dT*dT*dT*dA[ms]dT*eTeAeA*eA[ms]e[5mC]) [compound 1809745] | 26 | 16 |  |  |  |
| 1652913: 5-10-5 MOE gapmer GGTGAATCTTTATTAAACTA, linkages soooszssssszsszooss (antisense eG*eGeTeGeA*dA[ms]dT*d[5mC]*dT*dT*dT*dA[ms]dT*dT*dA[ms]eAeAe[5mC]*eT*eA) [compound 1652913] | 75 | 33 |  |  |  |
| 1809813 (eT*eTeGkG*dT*dG[ms]dA[ms]dA[ms]dT*d[5mC]*dT*dT*dT*dA[ms]kT*kT*eA*eA*eA*e[5mC]; antisense) [Compound 1809813] | 37 | 32 |  |  |  |
| 1652905: 6-10-4 MOE gapmer GGTGAATCTTTATTAAACTA, linkages sooossssssssssssoss (antisense eG*eGeTeGeA*eA*dT*d[5mC]*dT*dT*dT*dA*dT*dT*dA*dA*eAe[5mC]*eT*eA) [compound 1652905] | 44 | 15 |  |  |  |
| 1652900: 6-10-4 MOE gapmer GTGAATCTTTATTAAACTAG, linkages sooooossssssssssoss (antisense eG*eTeGeAeAeTd[5mC]*dT*dT*dT*dA*dT*dT*dA*dA*dA*e[5mC]eT*eA*eG) [compound 1652900] | 83 | 47 |  |  |  |
| 1809691: mixed MOE/cEt gapmer CTTGGTGAATCTTTATTAA, sugar eeeekddddddddddkeek, linkages sosssszzzssssszoss (e[5mC]*eTeT*eG*kG*dT*dG[ms]dA[ms]dA[ms]dT*d[5mC]*dT*dT*dT*dA[ms]kTeT*eA*kA) [compound 1809691] | 27 | 17 |  |  |  |
| 1652899: 6-10-4 MOE gapmer TGGTGAATCTTTATTAAACT, linkages sooooossssssssssoss (antisense eT*eGeGeTeGeAdA*dT*d[5mC]*dT*dT*dT*dA*dT*dT*dA*eAeA*e[5mC]*eT) [compound 1652899] | 57 | 16 |  |  |  |
| 1652911: 5-10-5 MOE gapmer GGTGAATCTTTATTAAACTA, linkages sooosszzzssssssooss (antisense eG*eGeTeGeA*dA*dT[ms]d[5mC][ms]dT[ms]dT*dT*dA*dT*dT*dA*eAeAe[5mC]*eT*eA) [compound 1652911] | 130 | 57 |  |  |  |
| 1652907: 5-10-5 MOE gapmer GGTGAATCTTTATTAAACTA, linkages soooszzssssssssooss (antisense eG*eGeTeGeA*dA[ms]dT[ms]d[5mC]*dT*dT*dT*dA*dT*dT*dA*eAeAe[5mC]*eT*eA) [compound 1652907] | 54 | 16 |  |  |  |
| 1809688: mixed MOE/cEt gapmer CTTGGTGAATCTTTATTAA, sugar eeeekddddddddddkkee, linkages sosssszzzssssszoss (e[5mC]*eTeT*eG*kG*dT*dG[ms]dA[ms]dA[ms]dT*d[5mC]*dT*dT*dT*dA[ms]kTkT*eA*eA) [compound 1809688] | 22 | 37 |  |  |  |
| 1810063: mixed MOE/cEt gapmer CTTGGTGAATCTTTATTAAAC, sugar eeeeeeddddddddddkkeee, linkages ssoosszzzssssszsooss (e[5mC]*eT*eTeGeG*eT*dG[ms]dA[ms]dA[ms]dT*d[5mC]*dT*dT*dT*dA[ms]dT*kTkAeA*eA*e[5mC]) [compound 1810063] | 43 | 40 |  |  |  |
| 1652908: 5-10-5 MOE gapmer GGTGAATCTTTATTAAACTA, linkages soooszzzsssssssooss (antisense eG*eGeTeGeA*dA[ms]dT[ms]d[5mC][ms]dT*dT*dT*dA*dT*dT*dA*eAeAe[5mC]*eT*eA) [compound 1652908] | 54 | 18 |  |  |  |
